From patent publication US6534524B1, “Indazole compounds and pharmaceutical compositions for inhibiting protein kinases, and methods for their use” (Agouron Pharmaceuticals, Inc., priority 1999, dated 2003)

System: human umbilical vein endothelial cells (HUVEC)
Assay: HUVEC proliferation assay (VEGF-stimulated, MTT);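 note: relative to VEGF-stimulated control minus starvation-medium baseline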
Type: cell-based
Conditions: Library II, Y=S, crude reaction mixtures
Protocol: HUVEC Proliferation Assay
This assay determines the ability of a test compound to inhibit the growth factor-stimulated proliferation of human umbilical vein endothelial cells (“HUVEC”). HUVEC cells (passage 3-4, Clonetics, Corp.) were thawed into EGM2 culture medium (Clonetics Corp) in T75 flasks. Fresh EGM2 medium was added to the flasks 24 hours later. Four or five days later, cells were exposed to another culture medium (F12K medium supplemented with 10% fetal bovine serum (FBS), 60 μg/mL endothelial cell growth supplement (ECGS), and 0.1 mg/mL heparin). Exponentially-growing HUVEC cells were used in experiments thereafter. Ten to twelve thousand HUVEC cells were plated in 96-well dishes in 100 μl of rich, culture medium (described above). The cells were allowed to attach for 24 hours in this medium. The medium was then removed by aspiration and 105 μl of starvation media (F12K+1% FBS) was added to each well. After 24 hours, 15 μl of test agent dissolved in 1% DMSO in starvation medium or this vehicle alone was added into each treatment well; the final DMSO concentration was 0.1%. One hour later, 30 μl of VEGF (30 ng/mL) in starvation media was added to all wells except those containing untreated controls; the final VEGF concentration was 6 ng/mL. Cellular proliferation was quantified 72 hours later by MTT dye reduction, at which time cells were exposed for 4 hours MTT (Promega Corp.).
For screening compound library plates, one or two concentrations (one well per concentration) were employed, and the % inhibition was calculated by the following formula:
% inhibition=(control−test)÷(control−starvation)
% inhibition=(control-treated)/(control-starvation)×100

[1] = 0.5 mM (column head; text: nominal 0.5 nM)
[2] = 2 mM (column head; text: nominal 2 nM)

| Structure (SMILES) | % inhibition of the proliferation of HUVEC [1] [%] | % inhibition of the proliferation of HUVEC [2] [%] |
| --- | --- | --- |
| O=C(NCCCN1CCOCC1)c1ccccc1Sc1ccc2c(/C=C/c3ccccn3)n[nH]c2c1 | 5 | 14 |
| O=C(NCC1CCCO1)c1ccccc1Sc1ccc2c(/C=C/c3ccccn3)n[nH]c2c1 (stereo not shown) | 23 | 44 |
| O=C(NCCCN1CCCC1=O)c1ccccc1Sc1ccc2c(/C=C/c3ccccn3)n[nH]c2c1 | 25 | 35 |
| CN1CCCC1CCNC(=O)c1ccccc1Sc1ccc2c(/C=C/c3ccccn3)n[nH]c2c1 (stereo not shown) | 30 | 23 |
| O=C(NCCN1CCCCC1)c1ccccc1Sc1ccc2c(/C=C/c3ccccn3)n[nH]c2c1 | 5 | 19 |
| CC1CCCCN1CCCNC(=O)c1ccccc1Sc1ccc2c(/C=C/c3ccccn3)n[nH]c2c1 (stereo not shown) | 25 | 15 |
| O=C(NC1CCN(Cc2ccccc2)CC1)c1ccccc1Sc1ccc2c(/C=C/c3ccccn3)n[nH]c2c1 | 44 | 19 |
| CN(C)CC(C)(C)CNC(=O)c1ccccc1Sc1ccc2c(/C=C/c3ccccn3)n[nH]c2c1 | 38 | 5 |
| N=C(N)CNC(=O)c1ccccc1Sc1ccc2c(/C=C/c3ccccn3)n[nH]c2c1 | 7 | −1 |
| O=C(NCCc1c[nH]cn1)c1ccccc1Sc1ccc2c(/C=C/c3ccccn3)n[nH]c2c1 | 23 | −32 |
| O=C(NCS(=O)(=O)O)c1ccccc1Sc1ccc2c(/C=C/c3ccccn3)n[nH]c2c1 | 2 | −3 |
| CN(CCCNC(=O)c1ccccc1Sc1ccc2c(/C=C/c3ccccn3)n[nH]c2c1)c1ccccc1 | 18 | 25 |
| NS(=O)(=O)c1ccc(CNC(=O)c2ccccc2Sc2ccc3c(/C=C/c4ccccn4)n[nH]c3c2)cc1 | 1 | 13 |
| O=C(NCCCN(CCO)CCO)c1ccccc1Sc1ccc2c(/C=C/c3ccccn3)n[nH]c2c1 | 4 | 4 |
| O=C(NCCc1ccncc1)c1ccccc1Sc1ccc2c(/C=C/c3ccccn3)n[nH]c2c1 | 18 | 22 |
| O=C(NO)c1ccccc1Sc1ccc2c(/C=C/c3ccccn3)n[nH]c2c1 | 7 | 25 |
| CNNC(=O)c1ccccc1Sc1ccc2c(/C=C/c3ccccn3)n[nH]c2c1 | 13 | 31 |
| COCCCNC(=O)c1ccccc1Sc1ccc2c(/C=C/c3ccccn3)n[nH]c2c1 | 26 | 31 |
| Cc1cc(NC(=O)c2ccccc2Sc2ccc3c(/C=C/c4ccccn4)n[nH]c3c2)on1 | 26 | 31 |
| Cc1cc(NC(=O)c2ccccc2Sc2ccc3c(/C=C/c4ccccn4)n[nH]c3c2)no1 | 28 | 14 |
| Nc1nc(NC(=O)c2ccccc2Sc2ccc3c(/C=C/c4ccccn4)n[nH]c3c2)n[nH]1 | −6 | 41 |
| O=C(NC1CCCCC1)c1ccccc1Sc1ccc2c(/C=C/c3ccccn3)n[nH]c2c1 | 12 | 76 |
| O=C(Nc1nncs1)c1ccccc1Sc1ccc2c(/C=C/c3ccccn3)n[nH]c2c1 | 44 | 28 |
| CC(C)CC(C)NC(=O)c1ccccc1Sc1ccc2c(/C=C/c3ccccn3)n[nH]c2c1 (stereo not shown) | 55 | 50 |
| CCCCCCNC(=O)c1ccccc1Sc1ccc2c(/C=C/c3ccccn3)n[nH]c2c1 | 21 | 90 |
| O=C(Nc1nnn[nH]1)c1ccccc1Sc1ccc2c(/C=C/c3ccccn3)n[nH]c2c1 | 21 | 64 |
| O=C(NCC1OCCO1)c1ccccc1Sc1ccc2c(/C=C/c3ccccn3)n[nH]c2c1 | 35 | 63 |

| Structure (SMILES) | % inhibition of the proliferation of HUVEC [1] [%] | % inhibition of the proliferation of HUVEC [2] [%] |
| --- | --- | --- |
| CC(C)C(CO)NC(=O)c1ccccc1Sc1ccc2c(/C=C/c3ccccn3)n[nH]c2c1 (stereo not shown) | 21 | −5 |
| CCC(COC)NC(=O)c1ccccc1Sc1ccc2c(/C=C/c3ccccn3)n[nH]c2c1 (stereo not shown) | 1 | 65 |
| CCOCCCNC(=O)c1ccccc1Sc1ccc2c(/C=C/c3ccccn3)n[nH]c2c1 | 44 | 97 |
| CCCC(CO)NC(=O)c1ccccc1Sc1ccc2c(/C=C/c3ccccn3)n[nH]c2c1 (stereo not shown) | 44 | 40 |
| COC(CNC(=O)c1ccccc1Sc1ccc2c(/C=C/c3ccccn3)n[nH]c2c1)OC | 47 | 89 |
| CSCCCNC(=O)c1ccccc1Sc1ccc2c(/C=C/c3ccccn3)n[nH]c2c1 | 44 | 100 |
| N#CCONC(=O)c1ccccc1Sc1ccc2c(/C=C/c3ccccn3)n[nH]c2c1 | 16 | 2 |
| CS(=O)(=O)NNC(=O)c1ccccc1Sc1ccc2c(/C=C/c3ccccn3)n[nH]c2c1 | 9 | 1 |
| CCn1nccc1NC(=O)c1ccccc1Sc1ccc2c(/C=C/c3ccccn3)n[nH]c2c1 | 26 | 2 |
| Cc1cc(NC(=O)c2ccccc2Sc2ccc3c(/C=C/c4ccccn4)n[nH]c3c2)n(C)n1 | 39 | 13 |
| NC(=O)NNC(=O)c1ccccc1Sc1ccc2c(/C=C/c3ccccn3)n[nH]c2c1 | 19 | 5 |
| O=C(NCCCO)c1ccccc1Sc1ccc2c(/C=C/c3ccccn3)n[nH]c2c1 | 24 | 31 |
| Cc1noc(NC(=O)c2ccccc2Sc2ccc3c(/C=C/c4ccccn4)n[nH]c3c2)c1C | 15 | 36 |
| CC1CCCC(NC(=O)c2ccccc2Sc2ccc3c(/C=C/c4ccccn4)n[nH]c3c2)C1 (stereo not shown) | 69 | 59 |
| CC1CCC(NC(=O)c2ccccc2Sc2ccc3c(/C=C/c4ccccn4)n[nH]c3c2)CC1 (stereo not shown) | −11 | 42 |
| O=C(NNCC(F)(F)F)c1ccccc1Sc1ccc2c(/C=C/c3ccccn3)n[nH]c2c1 | 16 | 42 |
| Cc1csc(NC(=O)c2ccccc2Sc2ccc3c(/C=C/c4ccccn4)n[nH]c3c2)n1 | 15 | 95 |
| Cc1cnc(NC(=O)c2ccccc2Sc2ccc3c(/C=C/c4ccccn4)n[nH]c3c2)s1 | 20 | 92 |
| CN1CCN(NC(=O)c2ccccc2Sc2ccc3c(/C=C/c4ccccn4)n[nH]c3c2)CC1 | 19 | −1 |
| CCCCC(CC)NC(=O)c1ccccc1Sc1ccc2c(/C=C/c3ccccn3)n[nH]c2c1 (stereo not shown) | 31 | 30 |
| CCCCCC(C)NC(=O)c1ccccc1Sc1ccc2c(/C=C/c3ccccn3)n[nH]c2c1 (stereo not shown) | −1 | 14 |
| CC(C)CCC(C)NC(=O)c1ccccc1Sc1ccc2c(/C=C/c3ccccn3)n[nH]c2c1 (stereo not shown) | 6 | 44 |
| CCCC(CCC)NC(=O)c1ccccc1Sc1ccc2c(/C=C/c3ccccn3)n[nH]c2c1 | 1 | 52 |
| CC(C)C(NC(=O)c1ccccc1Sc1ccc2c(/C=C/c3ccccn3)n[nH]c2c1)C(C)C | 18 | −2 |
| O=C1CSC(NC(=O)c2ccccc2Sc2ccc3c(/C=C/c4ccccn4)n[nH]c3c2)=N1 | 9 | −9 |
| CCCCC(=O)NNC(=O)c1ccccc1Sc1ccc2c(/C=C/c3ccccn3)n[nH]c2c1 | 40 | 94 |
